Source: article PMC4283194 (Neuroimage, 2014)
Where two headings read alike, the source gives them in different places.

Assays:
[1] = tested on: CB1 receptor; set-up: method as in Terry et al., 2008, Terry et al., 2010b, Yasuno et al., 2008; settings: monkey brain, ref Terry et al., 2008, Terry et al., 2010b, Yasuno et al.; cited from earlier work
[2] = target: T1, CB1 receptor (Homo sapiens, UniProt P21554); assay: [11C]MePPEP PET, VT by rank shaping regularised spectral analysis (RS-SA); assay type: in vivo; set-up: VT median: unit not given beside the values
T1 construct: assess the stability of CB1-receptor quantification in humans in vivo; from tissue; host or cells: living human brain (healthy volunteers), in vivo PET
T1 sequence (P21554 whole entry): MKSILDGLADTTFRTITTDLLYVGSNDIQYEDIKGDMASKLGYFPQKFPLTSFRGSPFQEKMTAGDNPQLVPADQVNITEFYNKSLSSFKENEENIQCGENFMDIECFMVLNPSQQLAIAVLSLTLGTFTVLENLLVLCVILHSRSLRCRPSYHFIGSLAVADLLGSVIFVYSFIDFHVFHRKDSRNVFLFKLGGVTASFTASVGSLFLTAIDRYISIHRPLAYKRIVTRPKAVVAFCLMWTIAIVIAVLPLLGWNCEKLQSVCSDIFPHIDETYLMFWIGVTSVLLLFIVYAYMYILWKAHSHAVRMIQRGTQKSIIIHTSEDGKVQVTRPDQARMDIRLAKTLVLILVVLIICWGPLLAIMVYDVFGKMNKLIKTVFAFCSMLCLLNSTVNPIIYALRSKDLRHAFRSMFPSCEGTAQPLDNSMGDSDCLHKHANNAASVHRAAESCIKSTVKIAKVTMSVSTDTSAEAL
Procedure: (§1) Continuous and intermittent blood samples were collected to allow the subsequent generation of metabolite-corrected arterial plasma time–activity curves (TACs) ([Hammers et al., 2008]). During the first 15 min blood was withdrawn continuously at a rate of 300 ml/h and radioactivity measured in a BGO detection system ([Jones et al., 1994]). To quantify plasma and whole blood radioactivity, as well as to allow quantification of the parent fraction of the radiotracer, intermittent discrete (10 ml) samples were taken with heparinised syringes before the scan (baseline) and at the following time points after scan start: 3, 5, 10, 15, 20, 30, and 50 min. At 75 min, a larger 17 ml sample was taken to allow quantification despite radioactivity decay. […] Continuous plasma input functions (IF) were derived by cross-calibration and combination of the continuous and discrete data, multiplication with the fitted plasma-over-blood ratio, and correction for parent radiotracer fraction, as described in detail in previous studies ([Hammers et al., 2007a], [Jones et al., 1994]).
VT values were generated directly from dynamic data sampled using ROIs with rank shaping (RS; orthogonalized-functional-base) regularisation of SA ([Turkheimer et al., 2003]) using in-house “Clickfit” software. As previously described by [Turkheimer et al. (2003)], we used the metabolite-corrected IF, a logarithmically spaced basis, an exponential range of bases extending to − 3.2, and the regional tissue TAC. TACs were weighted according to ([Gunn et al., 1998]):(3) Wi=Li/Tiforframei=1,2,3…35 [wi — weight for frame i; Li — length of frame i (seconds); and Ti — rate of true coincidences (per second)].
The VT for each ROI was then obtained as the plateau of the VT(R), where R is the expected signal-to noise ratio that is used as the regularisation parameter (R) in rank-shaping (Fig. 2; ([Turkheimer et al., 2003])).

[3] = target: T1, CB1 receptor; assay: [11C]MePPEP PET, VT by reversible three-compartment model with variable blood volume (4kbv); assay type: in vivo; set-up: unit not given beside the values
Procedure: as §1
K1 and k2 were calculated as for the 2kbv compartmental model described above; in addition, two additional rate constants were estimated to describe transfer relating to the third compartment: k3, which describes the transfer from the free and non-specifically bound compartment to the specifically bound (third) compartment; and k4, which describes the opposite transfer ([Cunningham et al., 1991], [Huang et al., 1980]). Again, a variable blood volume term was also computed. According to compartmental model equations ([Gunn et al., 2001], [Watabe et al., 2006]):(2) VT=K1/k21+k3/k4.

[4] = target: T1, CB1 receptor; assay: [11C]MePPEP PET, VT by classic spectral analysis parametric maps (SA-maps); assay type: in vivo
Procedure: as §1
The resulting parametric maps of VT values were then sampled in the eight selected ROIs.

[5] = set-up: method as in Terry et al., 2010a; settings: 370 MBq injected; ref Terry et al., 2010a; cited from earlier work
[6] = target: T1, CB1 receptor; assay: [11C]MePPEP PET, modified standard uptake values (mSUV); assay type: in vivo; settings: ~30–60 min after injection
Procedure: Modified standard uptake values (mSUVs; [Innis et al., 2007]) for frames 25–31, i.e. from 29 min 50 s to 58 min 50 s after injection, were also derived for the ROIs according to ([Goffin et al., 2011]):(4) activity×weightkg+70kg/2/injecteddose.

[7] = target: T1, CB1 receptor; assay: [11C]MePPEP PET, VT by reversible two-compartment model with variable blood volume (2kbv); assay type: in vivo
Procedure: as §1
In this model, three microparameters are derived: K1 is the influx of the ligand from the plasma to the tissue compartment containing free, non-specifically bound, and specifically bound ligand, k2 is the efflux constant from the ROI back to plasma ([Cunningham et al., 1991], [Huang et al., 1980]), and bv is a variable blood volume term. VT is then calculated according to the compartmental model equation ([Watabe et al., 2006]):(1) VT=K1/k2.

[8] = target: T1, CB1 receptor; assay: [11C]MePPEP PET, VT by classic spectral analysis on ROI data (SA-ROIs); assay type: in vivo; set-up: unit not given beside the values
Procedure: as §1
Volumes of distribution (VTs) ([Innis et al., 2007]) for each ROI were obtained from the dynamic images and the metabolite-corrected IFs using spectral analysis (SA) ([Cunningham and Jones, 1993], [Cunningham et al., 1993], [Turkheimer et al., 1994]). The fast frequency boundary was kept at the default value of 0.1 s^− 1. […] Based on previous work with another tracer with relatively slow kinetics ([Hammers et al., 2007a]), we changed this to 0.00063 s^− 1 (log10 = − 3.20) in order to reduce noise.

[9] = tested on: CB1 receptor; set-up: method as in Terry et al., 2008, Terry et al., 2010b, Yasuno et al., 2008; settings: determined using CB1 knockout mouse brain, ref Terry et al., 2008, Terry et al., 2010b, Yasuno et al.; cited from earlier work

In the case of `COc1cccc([C@H]2C[C@@H](N[C@H](C)c3ccccc3)C(=O)N2c2ccc(C(F)(F)F)cc2)c1` [[^11C]MePPEP, (3R,5R)-5-(3-methoxy-phenyl)-3-((R)-1-phenyl-ethylamino)-1-(4-trifluoro-methyl-phenyl)-pyrrolidin-2-one], the specific binding [1] is given as greater than 85%, the VT median ([2]; ACG) is given as 9.9 and the “VT from VT(R) plateau, example plot” value ([2]; Hippocampus, single example) is given as 12. For the same compound, the VT median ([2]; IFG) was 9.9, the VT median ([2]; Pallidum) was 10.3 and the VT median ([2]; Pons) was 4.3. The VT median ([2]; Thalamus) was 6.5, the VT median ([3]; ACG) was 9.0 and the VT median ([3]; Accumbens) was 13.6. For the same compound, the VT median ([3]; Caudate) was 6.2, the VT median ([3]; Hippocampus) was 13.4 and the VT median ([3]; Pallidum) was 10.6. It also gave a VT median ([3]; Pons) of 5.3, a VT median ([3]; Thalamus) of 6.1 and a VT median ([4]; ACG) of 14.8. It also gave a VT median ([4]; Caudate) of 12.9, a VT median ([4]; Hippocampus) of 11.5 and a VT median ([4]; IFG) of 14.8. For the same compound, the VT median ([4]; Pallidum) was 15.8, the VT median ([4]; Pons) was 4.4 and the VT median ([4]; Thalamus) was 13.2. The “effective dose per scan” value [5] was ~ 1.7 mSv, the mSUV median ([6]; ACG) was 3.2 and the mSUV median ([6]; Accumbens) was 3.0. For the same compound, the mSUV median ([6]; Caudate) was 2.9, the mSUV median ([6]; IFG) was 3.2 and the mSUV median ([6]; Pons) was 0.9. For the same compound, the VT median ([7]; ACG) was 10.3, the VT median ([7]; Hippocampus) was 8.0 and the VT median ([7]; Pallidum) was 10.8. It also gave a VT median ([7]; Pons) of 3.0, a VT median ([7]; Thalamus) of 5.1 and a VT median ([8]; ACG) of 14.4. It also gave a VT median ([8]; Accumbens) of 13.9, a VT median ([8]; Hippocampus) of 12.4 and a VT median ([8]; IFG) of 13.9. It also gave a VT median ([8]; Pallidum) of 15.7, a VT median ([8]; Pons) of 6.0 and a VT median ([8]; Thalamus) of 9.6. For the same compound, the specific binding [9] was 65%.
